Reference: patent US20060020035A1, “Bone marrow protection with N-acetyl-L-cysteine” (Oregon Health & Science University, priority 2004, published 2006)
Like-named read-outs stand apart in the source and are kept apart here.

What was measured:
[1] = tested on: total white cells, granulocytes, and platelets; assay: Major tumor study: blood counts after tri-drug chemotherapy with or without chemoprotection; type: in vivo, nude rats
Method: (§1) Osmotic Blood-Brain Barrier Disruption. Anesthesia was induced with 5% isoflurane and maintained with propofol (650 μg/kg/min). Mannitol (25%, 37° C.) was infused cephalad into the left internal carotid artery via a left external carotid catheter (Remsen et al., Anesthesia Analgesia 88:559-67, 1999).
(§2) Aortic Infusion Technique. The left internal carotid artery was temporarily occluded, and agents were administered retrograde to the descending aorta through a left external carotid catheter (Neuwelt et al., Cancer Res 61:7868-74, 2001).

[2] = in vivo; details: Long Evans, rat, maximum tolerated dose
Method: as §1, §2
N-Acetylcysteine Toxicity. N-Acetyl-L-cysteine (N-acetylcysteine, Mucomyst; Roxane Laboratories, Inc., Columbus, Ohio) was given by aortic infusion 30 min (n=7) or 60 min (n=10) before blood brain barrier disruption in normal Long Evans rats. Doses ranged from 400 to 1500 mg/kg in 3 ml infused at 0.6 ml/min. Rats were sacrificed 6 days after treatment or at signs of acute neurotoxicity (head tilt, circling, moribund).

[3] = N-Acetylcysteine clearance from rat blood (serum concentration, colorimetric kit and HPLC); type: in vivo, Long Evans rats
Method: N-Acetylcysteine Clearance. […] Blood samples (0.5 ml) were collected 5, 15, 30, 60, and 90 min after thiol administration, and serum was evaluated for N-acetylcysteine concentration. Serum N-acetylcysteine concentrations were measured using the Bioxytech GSH-400 colorimetric kit (Oxis Research, Portland, Oreg.). The colorimetric assay was validated by high-pressure liquid chromatography (HPLC) analysis of serum thiols for n=2 rats from groups B and D. Deproteinated serum samples were diluted in 160 mM KH2PO4, pH 3. Thiols were measured by electrochemical detection using a Waters radial compression module with 10-μm C18 column (Waters, Milford, Mass.), an ESA 5010 analytical cell, and an ESA 5100A coulochem detector (ESA Inc., Chelmsford, Mass.). Area under the curve was compared with known concentrations prepared in control sera.

[4] = tested on: total white cells, granulocytes, and platelets; assay: Example 2: L-NAC and D-NAC on rat blood counts after buthionine sulfoximine and tri-drug chemotherapy; type: in vivo; details: pretreatment; rats pretreated with buthionine sulfoximine, tri-drug chemotherapy
From the text: In the experiment shown in FIG. 4, rats were pretreated With buthionine sulfoximine to enhance the bone marrow toxicity of chemotherapy, and then treated with the tri-drug chemotherapy regimen with or without L-NAC or D-NAC.

[5] = tested on: platelets; details: 8 g/m^2 intravenous 2, 4, or 8 h after high-dose carboplatin; blood counts 6 days after chemotherapy
Method: Pilot study 2 evaluated various timing schemes for chemoprotection. Normal rats (n=54, six rats per group) were treated with a tri-drug chemotherapy regimen consisting of carboplatin (200 mg/m^2), melphalan (10 mg/m^2 Alkeran; GlaxoSmithKline, Uxbridge, Middlesex, UK), and etoposide phosphate (100 mg/m^2 Etopophos; Bristol-Meyers Squibb Co.), administered in the right carotid artery. […] For both pilot studies 1 and 2, blood counts were determined at 6 days after chemotherapy, in comparison with untreated controls. For blood count analysis, 0.5 ml of whole blood collected in EDTA microtubes was analyzed in duplicate on a Hemavet 850 (CDC Technologies Inc., Oxford, Conn.).

[6] = previously reported (Neuwelt et al. 1998); cited from earlier work
[7] = tested on: bone marrow; details: administered immediately after chemotherapy, alone or in combination with N-acetylcysteine (Neuwelt et al. 2001); cited from earlier work
[8] = 1000 mg/kg by aortic infusion, 60 min before chemotherapy

CC(=O)N[C@@H](CS)C(=O)O [N-acetylcysteine, N-acetyl-L-cysteine]
protection for granulocytes [1, 8]: significantly protective
protection for white cells [1, 8]: significantly protective
platelet chemoprotection ([1]; N-acetylcysteine alone, 1000 mg/kg by aortic infusion, 60 min before chemotherapy): not significant
MTD at 6 days ([2]; aortic infusion 30 min before blood-brain barrier disruption): 500 mg/kg
MTD at 6 days ([2]; aortic infusion 60 min before blood-brain barrier disruption): 1000 mg/kg
maximum blood concentration ([3]; 1000 mg/kg intra-arterially, 5 min after infusion): 11.2 ± 1.3 mM
blood concentration at the time of chemotherapy delivery ([3]; 1000 mg/kg intra-arterially, 60 min after infusion): 200 ± 100 µM
half-life ([3]; Long Evans, rat, serum, other: intravenous or aortic infusion (all groups), all groups: 140-1200 mg/kg, intravenous or aortic infusion): 9 to 11 min
bone marrow chemoprotective activity (total white cells, granulocytes, and platelets) [4]: significantly reduced chemotherapy toxicity

CC(=O)N[C@H](CS)C(=O)O [D-NAC, N-acetyl-D-cysteine]
bone marrow chemoprotective activity (total white cells, granulocytes, and platelets) [4]: not bone marrow protective

O=S([O-])([O-])=S.[Na+].[Na+] [sodium thiosulfate]
platelet chemoprotection [5]: delaying sodium thiosulfate administration improved platelet chemoprotection
protection against chemotherapy-induced bone marrow suppression ([1]; sodium thiosulfate 8 g/m^2 4 and 8 h after chemotherapy, with or without N-acetylcysteine 1000 mg/kg 60 min before): minimal protective effect
half-life [6]: 15 min
bone marrow chemoprotective activity [7]: minimal bone marrow chemoprotective activity
